“Also recorded” adds a separate entry of the source. Where two headings read alike, the source gives them in different places.
Key:
[1] = system: multidrug-resistant strains of HIV; settings: cited from earlier work
[2] = system: MT-2 cell line; test: Cell viability assay; format: cell-based, human; settings: MTT assay, concentrations up to 100 μM
[3] = Solubility in water; format: physicochemical
[4] = system: TZM-BL (derived from Hela Cells); test: Cytotoxicity screening, Promega CellTiter-Glo Luminescent Cell Viability Assay; format: cell-based; settings: Homo sapiens, read-out: IC50 (μM), concentration that inhibits cell growth by 50%

Q: With `Cc1cn([C@H]2C[C@H](O)[C@](CO)(N=[N+]=[N-])O2)c(=O)[nH]c1=O` [4′-C-azidothymidine] as the compound, how does the EC50 [1] read?
A: Its EC50 is 340 nM.

Q: Which “cytotoxicity / effect on cell growth” value [2] does the source give for `[N-]=[N+]=N[C@]1(CO)O[C@@H](n2ccc(N)nc2=O)[C@@H](F)[C@@H]1O` [Compound 10, 1-(4′-azido-2′-deoxy-2′-fluoro-β -D-arabinofuranosyl)cytosine] here?
A: The value was “did not show significant cytotoxicity; also recorded: without significant cytotoxicity; also recorded: no significant effect on cell growth or any cytotoxic effect”.

Q: What about the solubility ([3]; water) of the same compound?
A: The solubility was 3.1 g in 100 g water.

Q: For `Cl.[N-]=[N+]=N[C@]1(CO)O[C@@H](n2ccc(N)nc2=O)[C@@H](F)[C@@H]1O` [Compound 11, 1-(4-azido-2-deoxy-2-fluoro)-β-D-arabinofuranosyl)cytosine hydrochloride salt], which IC50 [4] is on record?
A: Its IC50 is greater than 140 µM.

Q: For `Cl.[N-]=[N+]=N[C@]1(CO)O[C@@H](n2ccc(N)nc2=O)[C@@H](F)[C@@H]1O` [Compound 11], which “cytotoxicity / effect on cell growth” value [2] is on record?
A: Its value is “did not show significant cytotoxicity; also recorded: without significant cytotoxicity; also recorded: no significant effect on cell growth or any cytotoxic effect”.

Q: What about the solubility [3] of the same compound?
A: The solubility was 14.3 g in 100 g water.
